The results in this text go back to US9586994B2, “CD44V6-derived peptides for treating breast cancer” (KARLSRUHER INSTITUT FÜR TECHNOLOGIE, priority 2012, dated 2017).

The subject of assay [1] is CD44v6. Put plainly: Peptide blocking of ErbB ligand- or HGF-induced Erk-kinase phosphorylation in HT29 cells (Western blot). The assay is classed as cell-based, human. The note with it: peptide 100 ng/ml; for EGF-dependent Erk-phosphorylation: EGF 20 ng/ml. The protocol:
3×10^5 were seeded per well of a 6-well plate and serum-starved for 24 hours. Afterwards the medium inside of each well was reduced to 1 ml and the respective peptide (v6 (both peptides of SEQ ID No.: 2 and 6 were tested), or ctrl peptide) was added at a concentration of 100 ng/ml. The cells then were incubated together with the peptide at 37° C. for 5 mins. Ligand concentration for all peptide blocking experiments was 20 ng/ml.
The cells were incubated with the growth factors specified in the particular experiment. Except for the peptide blocking and migration assays, ligand concentration was 5 ng/ml at all times. Prior to induction the cells were treated as indicated in the results section.
To assay protein expression via Western blot cells were washed 1× with PBS and afterwards lysed in 2×Laemmli sample buffer (160 mM Tris-HCl pH 6.8, 4% SDS, 16% glycerol, 0.1M DTT, 0.01% bromphenol blue). The sample was sheared through a 26 gauge needle. In succession the lysates were boiled for 5 mins at 99° C. in order to denature the proteins in the sample and then spun down at 10 000 rmp for 1 min Eventually the samples were loaded onto an SDS-PAGE gel.
In order to test whether CD44v6 plays a role in the activation of the ErbB family of receptors, a peptide blocking experiment using the 14mers of SEQ ID No. 6 was performed in HT29 cells. The fact that this cell line expresses all ErbB receptors (Wu et al, 2009, see references) and several CD44 variants including also exon v3 and v6 (Orian-Rousseau et al., 2002, see references) makes it a suitable tool to evaluate the co-receptor function of CD44 proteins for the ErbB family. The first ErbB1-ligand that was evaluated was EGF. […] The cells were serum starved for 24 hours and induced with EGF. Phosphorylation of the Erk-Kinase, a downstream target of the ErbB receptor family, was used as a read-out for ErbB receptor activation. HGF was used as a control to test the blocking efficiency of the CD44v6 peptide since the induction of the Erk kinase through Met is dependent on CD44v6 (Orian-Rousseau et al., 2002, see references).
Besides EGF, five other ligands, namely AR, BC, ER, HB-EGF, and TGFα, can activate the ErbB1 receptor. EGF, AR and TGFα bind to either an ErbB1-homo- or an ErbB1/2-heterodimer. In addition to these dimers, BC, ER and HB-EGF can also bind to an Erb4/4 homo- or an ErbB2/4 heterodimer. It was investigated whether the activation of the ErbB receptors by the indicated ligands is also dependent on CD44v6. HT29 cells were serum-starved for 24 hours and pre-treated with the v6-specific or a control peptide. They were then induced with the indicated ErbB ligands. Erk-kinase phosphorylation was used as a read-out for receptor activation.
For this purpose HT29 cells were serum-starved for 24 hours and pre-treated with the v6-specific or a control peptide. They were then induced with the indicated ErbB ligands. Erk-kinase phosphorylation was used as a read-out for receptor activation. All ligands could activate the Erk-kinase. […] These ligands are independent of CD44v6 for their induction of the ErbB receptors. This is especially striking, since EGF and TGF-α address the same receptor pairs (ErbB1/1 or ErbB1/2).
On the technique in general: A western blot detects proteins with antibodies after separation by electrophoresis.

In assay [2] the test system is CD44v6. Briefly: HGF-induced activation of Met and ERK in L3.6pl cells (Western blot). It is filed as cell-based, human. The note with it: peptide before induction with 10 ng/ml HGF. Put shortly: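 L3.6pl human pancreatic carcinoma cells serum-starved 24 h, pretreated 10 min at 37° C with CD44v6 or control peptide (100 ng/mL), then stimulated with HGF (10 ng/mL) 5 min. Phospho-Met and phospho-ERK detected by western blot with total Met/ERK reprobe; bands quantified densitometrically.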

For the sequence “KEQWFGNRWHEGYR [SEQ ID NO: 6, human CD44v6 14mer peptide]”, the “EGF-dependent Erk-phosphorylation” value in assay [1] (HT29, serum-starved, 5 min pre-incubation, listed as CD44v6 peptide) is listed as “could be inhibited”; in assay [1] (HT29, serum-starved, 5 min pre-incubation, listed as human v6 14mer), “inhibited”. Further, in assay [1] (HT29, serum-starved, 5 min pre-incubation, HGF as control ligand), the “HGF-dependent Erk-phosphorylation” value was “could be inhibited”. The “AR-induced activation of the ErbB receptors (Erk phosphorylation)” value in assay [1] (HT29, AR 20 ng/ml) is on record as “could not be inhibited”. Also, the “BC-induced activation of the ErbB receptors (Erk phosphorylation)” value in assay [1] (HT29, BC 20 ng/ml) is on record as “could not be inhibited”. Further, the “ER-dependent Erk-phosphorylation” value in assay [1] (HT29, ER 20 ng/ml) was “inhibited”. Besides, the “HB-EGF-induced activation of the ErbB receptors (Erk phosphorylation)” value in assay [1] (HT29, HB-EGF 20 ng/ml) is given as “could not be inhibited”. Further, the “TGFα-induced activation of the ErbB receptors (Erk phosphorylation)” value in assay [1] (HT29, TGFα 20 ng/ml) is “could not be inhibited”. Besides, the figures for the “HGF-induced phosphorylation/activation of ERK” value in assay [2] and in assay [2] (listed as CD44v6 peptide) were “inhibited” and “able to prevent activation”, respectively. Moreover, the “HGF-induced phosphorylation/activation of Met” value in assay [2] is listed as “inhibited”; in assay [2] (listed as CD44v6 peptide) it was “able to prevent activation”.
